# Where “and” joins values, the source holds several entries; their conditions need not be identical. Equal values may be shown once. Read-outs that look alike come from different tables or passages of the source.
# What was measured:
# Plasma stability Mouse = assay type: in vitro ADME
# [1] = Mouse ileum C-max after single PO dose; assay type: in vivo
# [2] = system: Enterotoxigenic Escherichia coli (ETEC) (ATCC ® 35401 ™, H10407); assay type: in vivo, mouse; details: for Body weights (Final Day) (Mean ± SD) / Log10 CFU/g [Mean ± SD] Blood / Log10 CFU/g [Mean ± SD] Kidneys / Log10 CFU/g [Mean ± SD] Liver / Log10 CFU/g [Mean ± SD] Spleen / Kidney -Raw data on Vancomycin (32 μg/ml) plates / Liver-Raw data on Vancomycin (32 μg/ml) plates / Spleen -Raw data on Vancomycin (32 μg/ml) plates / Blood -Raw data on Vancomycin (32 μg/ml) plates - on day 7 PI: PO, twice daily(q12h), 9 days; for effect on bacterial translocation: presence of cyclophosphamide, FIG. 4; for Clinical observation (Mean Score) Hunched Posture / Clinical observation (Mean Score) Lethergy / Clinical observation (Mean Score) Rough coat / Clinical observation (Mean Score) hyperpnea: 0=absent 1=present; for Kidney -Raw data on Vancomycin (32 μg/ml) plates / Liver-Raw data on Vancomycin (32 μg/ml) plates / Spleen -Raw data on Vancomycin (32 μg/ml) plates / Blood -Raw data on Vancomycin (32 μg/ml) plates - on day 7 PI: individual animals
# Experimental: FIG. 3: Schematic protocol for neutropenia mouse model
# A schematic of the experimental model is depicted in FIG. 3.
# That experiment was performed in the presence of cyclophosphamide, which is known to cause febrile neutropenia due to translocation of bacteria to vital organs.
# recombinant human HDAC1 = target: T1, recombinant human HDAC1 (Homo sapiens, UniProt Q13547); test: HDAC1 in-vitro enzymatic assay; assay type: biochemical
# T1 construct: purchased BPS 50051
# Experimental: All of the compounds were dissolved in DMSO. A series of dilutions of the compounds were prepared with 10% DMSO in HDAC assay buffer and 5 μl of the dilution was added to a 50 μl reaction so that the final concentration of DMSO was 1% in all of reactions. The compounds were pre-incubated in duplicate at RT for 30 minutes in a mixture containing HDAC assay buffer, 5 μg BSA, HDAC enzyme and a test compound. After 30 minutes, the enzymatic reactions were initiated by the addition of HDAC substrate to a final concentration of 20 μM or 2 μM. The enzymatic reaction proceeded for 30 minutes at 37° C. After enzymatic reactions, 50 μl of 2×HDAC Developer was added to each well for the HDAC enzymes and the plate was incubated at room temperature for an additional 15 minutes. Fluorescence intensity was measured at an excitation of 360 nm and an emission of 460 nm using a Tecan Infinite M1000 microplate reader.
# HDAC activity assays were performed in duplicates at each concentration. The fluorescent intensity data were analyzed using the computer software, Graphpad Prism. […] The percent activity in the presence of each compound was calculated according to the following equation: % activity=(F−Fb)/(Ft−Fb), where F=the fluorescent intensity in the presence of the compound. […] The IC50 value was determined by the concentration causing a half-maximal percent activity.
# [3] = Day (0), 5 mg/kg PO q12h 9 days
# [4] = Day (0), 50 mg/kg PO q12h 9 days
# [5] = Day (1), 5 mg/kg PO q12h 9 days
# [6] = Day (1), 50 mg/kg PO q12h 9 days
# [7] = Day (2), 5 mg/kg PO q12h 9 days
# [8] = Day (2), 50 mg/kg PO q12h 9 days
# [9] = Day (3), 5 mg/kg PO q12h 9 days
# [10] = Day (3), 50 mg/kg PO q12h 9 days
# [11] = Day (4), 5 mg/kg PO q12h 9 days
# [12] = Day (4), 50 mg/kg PO q12h 9 days
# [13] = Day (5), 5 mg/kg PO q12h 9 days
# [14] = Day (5), 50 mg/kg PO q12h 9 days
# [15] = Day (6), 5 mg/kg PO q12h 9 days
# [16] = Day (6), 50 mg/kg PO q12h 9 days
# [17] = Day (7), 5 mg/kg PO q12h 9 days
# [18] = Day (7), 50 mg/kg PO q12h 9 days
# [19] = Day (−1), 5 mg/kg PO q12h 9 days
# [20] = Day (−1), 50 mg/kg PO q12h 9 days
# [21] = Day (−2), 5 mg/kg PO q12h 9 days
# [22] = Day (−2), 50 mg/kg PO q12h 9 days
# T1 sequence (Q13547 whole entry): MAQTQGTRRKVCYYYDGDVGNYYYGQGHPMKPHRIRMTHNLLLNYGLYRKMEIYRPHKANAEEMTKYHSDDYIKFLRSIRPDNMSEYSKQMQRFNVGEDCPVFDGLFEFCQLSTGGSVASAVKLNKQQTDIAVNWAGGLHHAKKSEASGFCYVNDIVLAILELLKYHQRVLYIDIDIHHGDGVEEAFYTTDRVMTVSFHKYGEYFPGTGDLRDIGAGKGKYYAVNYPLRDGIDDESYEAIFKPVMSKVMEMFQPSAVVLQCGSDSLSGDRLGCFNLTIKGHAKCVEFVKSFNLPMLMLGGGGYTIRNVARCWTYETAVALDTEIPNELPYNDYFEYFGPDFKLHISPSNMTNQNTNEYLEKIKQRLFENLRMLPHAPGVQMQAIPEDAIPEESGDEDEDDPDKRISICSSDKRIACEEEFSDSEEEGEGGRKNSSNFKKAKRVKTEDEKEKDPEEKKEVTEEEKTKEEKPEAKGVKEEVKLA
structure (smiles),measurement,setting,value
"C#CCOCC(=O)Nc1ccc(C(=O)Nc2ccccc2N)cc1 [Compound 1, N-(2-aminophenyl)-4-{2-[(prop-2-yn-1-yl)oxy]acetamido}benzamide]",Plasma stability Mouse,Plasma stability Mouse,Low
same,PO single 5 mg/kg mouse - Ileum C-max,[1]; PO single 5 mg/kg,0.9 µM
same,PO single 15 mg/kg mouse - Ileum C-max,[1]; PO single 15 mg/kg,2.0 µM
same,PO single 50 mg/kg mouse - Ileum C-max,[1]; PO single 50 mg/kg,7.1 µM
same,Body weights (Final Day) (Mean ± SD),[2]; 5 mg/kg,25.2 ± 1.69
same,Log10 CFU/g [Mean ± SD] Blood,[2]; 5 mg/kg,1.9 ± 0 Log10 CFU/g
same,Log10 CFU/g [Mean ± SD] Kidneys,[2]; 5 mg/kg,2.83 ± 0.29^ns Log10 CFU/g
same,Log10 CFU/g [Mean ± SD] Liver,[2]; 5 mg/kg,2.58 ± 0.32 Log10 CFU/g
same,Log10 CFU/g [Mean ± SD] Spleen,[2]; 5 mg/kg,3.05 ± 0.3^ns Log10 CFU/g
same,effect on bacterial translocation,[2]; 5 mg/kg,little to no effect
same,Body weights (Final Day) (Mean ± SD),[2]; 50 mg/kg,26.1 ± 1.20
same,Log10 CFU/g [Mean ± SD] Blood,[2]; 50 mg/kg,BLOQ
same,Log10 CFU/g [Mean ± SD] Kidneys,[2]; 50 mg/kg,BLOQ
same,Log10 CFU/g [Mean ± SD] Liver,[2]; 50 mg/kg,BLOQ
same,Log10 CFU/g [Mean ± SD] Spleen,[2]; 50 mg/kg,BLOQ
same,effect on bacterial translocation,[2]; 50 mg/kg,inhibits it completely
same,Clinical observation (Mean Score) Hunched Posture,[2]; [3],0.0
same,Clinical observation (Mean Score) Lethergy,[2]; [3],0.0
same,Clinical observation (Mean Score) Rough coat,[2]; [3],0.0
same,Clinical observation (Mean Score) hyperpnea,[2]; [3],0.0
same,Clinical observation (Mean Score) Hunched Posture,[2]; [4],0.0
same,Clinical observation (Mean Score) Lethergy,[2]; [4],0.0
same,Clinical observation (Mean Score) Rough coat,[2]; [4],0.0
same,Clinical observation (Mean Score) hyperpnea,[2]; [4],0.0
same,Clinical observation (Mean Score) Hunched Posture,[2]; [5],0.0
same,Clinical observation (Mean Score) Lethergy,[2]; [5],0.0
same,Clinical observation (Mean Score) Rough coat,[2]; [5],0.0
same,Clinical observation (Mean Score) hyperpnea,[2]; [5],0.0
same,Clinical observation (Mean Score) Hunched Posture,[2]; [6],0.0
same,Clinical observation (Mean Score) Lethergy,[2]; [6],0.0
same,Clinical observation (Mean Score) Rough coat,[2]; [6],0.0
same,Clinical observation (Mean Score) hyperpnea,[2]; [6],0.0
same,Clinical observation (Mean Score) Hunched Posture,[2]; [7],0.0
same,Clinical observation (Mean Score) Lethergy,[2]; [7],0.0
same,Clinical observation (Mean Score) Rough coat,[2]; [7],0.0
same,Clinical observation (Mean Score) hyperpnea,[2]; [7],0.0
same,Clinical observation (Mean Score) Hunched Posture,[2]; [8],0.0
same,Clinical observation (Mean Score) Lethergy,[2]; [8],0.0
same,Clinical observation (Mean Score) Rough coat,[2]; [8],0.0
same,Clinical observation (Mean Score) hyperpnea,[2]; [8],0.0
same,Clinical observation (Mean Score) Hunched Posture,[2]; [9],0.0
same,Clinical observation (Mean Score) Lethergy,[2]; [9],0.0
same,Clinical observation (Mean Score) Rough coat,[2]; [9],0.0
same,Clinical observation (Mean Score) hyperpnea,[2]; [9],0.0
same,Clinical observation (Mean Score) Hunched Posture,[2]; [10],0.0
same,Clinical observation (Mean Score) Lethergy,[2]; [10],0.0
same,Clinical observation (Mean Score) Rough coat,[2]; [10],0.0
same,Clinical observation (Mean Score) hyperpnea,[2]; [10],0.0
same,Clinical observation (Mean Score) Hunched Posture,[2]; [11],0.0
same,Clinical observation (Mean Score) Lethergy,[2]; [11],0.0
same,Clinical observation (Mean Score) Rough coat,[2]; [11],0.0
same,Clinical observation (Mean Score) hyperpnea,[2]; [11],0.0
same,Clinical observation (Mean Score) Hunched Posture,[2]; [12],0.0
same,Clinical observation (Mean Score) Lethergy,[2]; [12],0.0
same,Clinical observation (Mean Score) Rough coat,[2]; [12],0.0
same,Clinical observation (Mean Score) hyperpnea,[2]; [12],0.0
same,Clinical observation (Mean Score) Hunched Posture,[2]; [13],0.0
same,Clinical observation (Mean Score) Lethergy,[2]; [13],0.1
same,Clinical observation (Mean Score) Rough coat,[2]; [13],0.5
same,Clinical observation (Mean Score) hyperpnea,[2]; [13],0.0
same,Clinical observation (Mean Score) Hunched Posture,[2]; [14],0.0
same,Clinical observation (Mean Score) Lethergy,[2]; [14],0.0
same,Clinical observation (Mean Score) Rough coat,[2]; [14],0.0
same,Clinical observation (Mean Score) hyperpnea,[2]; [14],0.0
same,Clinical observation (Mean Score) Hunched Posture,[2]; [15],0.0
same,Clinical observation (Mean Score) Lethergy,[2]; [15],0.4
same,Clinical observation (Mean Score) Rough coat,[2]; [15],0.7
same,Clinical observation (Mean Score) hyperpnea,[2]; [15],0.0
same,Clinical observation (Mean Score) Hunched Posture,[2]; [16],0.0
same,Clinical observation (Mean Score) Lethergy,[2]; [16],0.0
same,Clinical observation (Mean Score) Rough coat,[2]; [16],0.4
same,Clinical observation (Mean Score) hyperpnea,[2]; [16],0.0
same,Clinical observation (Mean Score) Hunched Posture,[2]; [17],0.0
same,Clinical observation (Mean Score) Lethergy,[2]; [17],0.5
same,Clinical observation (Mean Score) Rough coat,[2]; [17],1.0
same,Clinical observation (Mean Score) hyperpnea,[2]; [17],0.0
same,Clinical observation (Mean Score) Hunched Posture,[2]; [18],0.0
same,Clinical observation (Mean Score) Lethergy,[2]; [18],0.0
same,Clinical observation (Mean Score) Rough coat,[2]; [18],0.4
same,Clinical observation (Mean Score) hyperpnea,[2]; [18],0.0
same,Clinical observation (Mean Score) Hunched Posture,[2]; [19],0.0
same,Clinical observation (Mean Score) Lethergy,[2]; [19],0.0
same,Clinical observation (Mean Score) Rough coat,[2]; [19],0.0
same,Clinical observation (Mean Score) hyperpnea,[2]; [19],0.0
same,Clinical observation (Mean Score) Hunched Posture,[2]; [20],0.0
same,Clinical observation (Mean Score) Lethergy,[2]; [20],0.0
same,Clinical observation (Mean Score) Rough coat,[2]; [20],0.0
same,Clinical observation (Mean Score) hyperpnea,[2]; [20],0.0
same,Clinical observation (Mean Score) Hunched Posture,[2]; [21],0.0
same,Clinical observation (Mean Score) Lethergy,[2]; [21],0.0
same,Clinical observation (Mean Score) Rough coat,[2]; [21],0.0
same,Clinical observation (Mean Score) hyperpnea,[2]; [21],0.0
same,Clinical observation (Mean Score) Hunched Posture,[2]; [22],0.0
same,Clinical observation (Mean Score) Lethergy,[2]; [22],0.0
same,Clinical observation (Mean Score) hyperpnea,[2]; [22],0.0
same,Bacteria in treated animals,"[2]; day 7, compound 1 at 50 mg/kg",BLOQ
same,antibacterial effect in liver and blood compared to vehicle controls,"[2]; day 7, p<0.05",significant dose dependent antibacterial effect
same,Kidney -Raw data on Vancomycin (32 μg/ml) plates,[2]; 5 mg/kg,2.73 Log10 CFU/g and 3.23 Log10 CFU/g and 2.66 Log10 CFU/g and 2.94 Log10 CFU/g and 3.34 Log10 CFU/g and 2.68 Log10 CFU/g and 2.59 Log10 CFU/g and 2.54 Log10 CFU/g and 2.75 Log10 CFU/g and BLOQ
same,Liver-Raw data on Vancomycin (32 μg/ml) plates,[2]; 5 mg/kg,2.67 Log10 CFU/g and 2.41 Log10 CFU/g (2×) and 3.42 Log10 CFU/g and 2.33 Log10 CFU/g and 2.39 Log10 CFU/g (2×) and 2.53 Log10 CFU/g and 2.61 Log10 CFU/g and 2.57 Log10 CFU/g
same,Spleen -Raw data on Vancomycin (32 μg/ml) plates,[2]; 5 mg/kg,3.04 Log10 CFU/g and 3.00 Log10 CFU/g and 3.51 Log10 CFU/g and 2.62 Log10 CFU/g and BLOQ (4×) and 2.91 Log10 CFU/g and 3.17 Log10 CFU/g
same,Kidney -Raw data on Vancomycin (32 μg/ml) plates,[2]; 50 mg/kg,BLOQ
same,Liver-Raw data on Vancomycin (32 μg/ml) plates,[2]; 50 mg/kg,BLOQ
same,Spleen -Raw data on Vancomycin (32 μg/ml) plates,[2]; 50 mg/kg,BLOQ
same,Blood -Raw data on Vancomycin (32 μg/ml) plates - on day 7 PI,[2]; 5 mg/kg,1.90 Log10 CFU/g
same,Blood -Raw data on Vancomycin (32 μg/ml) plates - on day 7 PI,"[2]; 5 mg/kg, 5 mg/kg",BLOQ
same,Blood -Raw data on Vancomycin (32 μg/ml) plates - on day 7 PI,[2]; 50 mg/kg,BLOQ
same,clinical condition of animals,[2]; treated groups,apparently normal
same,IC50,recombinant human HDAC1,< 1000 nM
same,inhibition at 1 µM,"recombinant human HDAC1; @ 1 μM, read-out: Inhib. HDAC1",75%
